Calls of active or inactive are those of the source. The calls are words filed in the database; no cut-off is given here.
Experiments:
MGC-803 [1] = test: cells; conditions: Homo sapiens, MGC-803, 72 h
Description: Cytotoxicity against human MGC803 cells after 72 hrs by MTT assay

PC-3 [2] = test: cells; conditions: Homo sapiens, PC-3, 72 h
Description: Cytotoxicity against human PC3 cells after 72 hrs by MTT assay

Bcap37 [3] = test: Cytotoxicity against human Bcap37 cells after 72 hrs by MTT assay; conditions: Bcap37, 72 h
MGC-803 [4] = test: Induction of apoptosis in human MGC803 cells assessed as early and late apoptosis ratio at 10 uM after 24 hrs by annxinV-FITC/propidium iodide staining-based flow cytometry; format: functional
PC-3 [5] = test: Induction of apoptosis in human PC3 cells assessed as pyknotic nuclei at 5 uM after 12 hrs by Hoechst 33258 staining-based fluorescence microscopic analysis; format: functional, cell-based
Bcap37 [6] = test: Induction of apoptosis in human Bcap37 cells assessed as pyknotic nuclei at 5 uM after 12 hrs by Hoechst 33258 staining-based fluorescence microscopic analysis; format: functional, cell-based
Bcap37 [7] = test: Induction of apoptosis in human Bcap37 cells assessed as early and late apoptic cells at 5 uM after 12 hrs by AO/EB staining-based fluorescence microscopic analysis; format: functional, cell-based
Bcap37 [8] = test: Induction of apoptosis in human Bcap37 cells assessed as necrotic cells at 5 uM after 12 hrs by AO/EB staining-based fluorescence microscopic analysis; format: functional, cell-based
MGC-803 [9] = test: Induction of apoptosis in human MGC803 cells assessed as early and late apoptosis ratio at 5 uM after 12 hrs by annxinV-FITC/propidium iodide staining-based flow cytometry; format: functional
PC-3 [10] = test: Induction of apoptosis in human PC3 cells assessed as early and late apoptic cells at 5 uM after 12 hrs by AO/EB staining-based fluorescence microscopic analysis; format: functional, cell-based
MGC-803 [11] = test: Induction of apoptosis in human MGC803 cells assessed as early and late apoptosis ratio at 1 uM after 24 hrs by annxinV-FITC/propidium iodide staining-based flow cytometry; format: functional
MGC-803 [12] = test: Induction of apoptosis in human MGC803 cells assessed as chromatin condensation at 5 uM after 12 hrs by Hoechst 33258 staining-based fluorescence microscopic analysis; format: functional, cell-based
MGC-803 [13] = test: Induction of apoptosis in human MGC803 cells assessed as early and late apoptosis ratio at 1 uM after 6 hrs by annxinV-FITC/propidium iodide staining-based flow cytometry; format: functional
MGC-803 [14] = test: Induction of apoptosis in human MGC803 cells assessed as early and late apoptosis ratio at 10 uM after 6 hrs by annxinV-FITC/propidium iodide staining-based flow cytometry; format: functional
MGC-803 [15] = test: Induction of apoptosis in human MGC803 cells assessed as early and late apoptosis ratio at 10 uM after 12 hrs by annxinV-FITC/propidium iodide staining-based flow cytometry; format: functional
MGC-803 [16] = test: Induction of apoptosis in human MGC803 cells assessed as early and late apoptosis ratio at 5 uM after 24 hrs by annxinV-FITC/propidium iodide staining-based flow cytometry; format: functional
Bcap37 [17] = test: Induction of apoptosis in human Bcap37 cells assessed as chromatin condensation at 5 uM after 12 hrs by Hoechst 33258 staining-based fluorescence microscopic analysis; format: functional, cell-based
MGC-803 [18] = test: Induction of apoptosis in human MGC803 cells assessed as pyknotic nuclei at 5 uM after 12 hrs by Hoechst 33258 staining-based fluorescence microscopic analysis; format: functional, cell-based
MGC-803 [19] = test: Induction of apoptosis in human MGC803 cells assessed as early and late apoptic cells at 5 uM after 12 hrs by AO/EB staining-based fluorescence microscopic analysis; format: functional, cell-based
MGC-803 [20] = test: Induction of apoptosis in human MGC803 cells assessed as DNA fragmentation at 5 uM after 12 hrs by EB staining-based agarose gel electrophoresis relative to control; format: functional, cell-based
[21] = Selectivity index, ratio of IC50 for mouse NIH3T3 cells to IC50 for human MGC803 cells; format: functional
MGC-803 [22] = test: Induction of apoptosis in human MGC803 cells assessed as early and late apoptosis ratio at 1 to 10 uM by annxinV-FITC/propidium iodide staining-based flow cytometry; format: functional, cell-based; conditions: TDE = time-dependent effect
MGC-803 [23] = test: Induction of apoptosis in human MGC803 cells assessed as early and late apoptosis ratio at 1 uM after 12 hrs by annxinV-FITC/propidium iodide staining-based flow cytometry; format: functional
MGC-803 [24] = test: Induction of apoptosis in human MGC803 cells assessed as early and late apoptosis ratio at 5 uM after 6 hrs by annxinV-FITC/propidium iodide staining-based flow cytometry; format: functional
PC-3 [25] = test: Induction of apoptosis in human PC3 cells assessed as chromatin condensation at 5 uM after 12 hrs by Hoechst 33258 staining-based fluorescence microscopic analysis; format: functional, cell-based
[26] = Selectivity index, ratio of IC50 for mouse NIH3T3 cells to IC50 for human Bcap37 cells; format: functional
[27] = Selectivity index, ratio of IC50 for mouse NIH3T3 cells to IC50 for human PC3 cells; format: functional
MGC-803 [28] = test: Induction of apoptosis in human MGC803 cells assessed as necrotic cells at 5 uM after 12 hrs by AO/EB staining-based fluorescence microscopic analysis; format: functional, cell-based
PC-3 [29] = test: Induction of apoptosis in human PC3 cells assessed as necrotic cells at 5 uM after 12 hrs by AO/EB staining-based fluorescence microscopic analysis; format: functional, cell-based
MGC-803 [30] = test: Induction of apoptosis in human MGC803 cells assessed as chromatin condensation at 10 uM after 12 hrs by Hoechst 33258 staining-based fluorescence microscopic analysis; format: functional, cell-based
Bcap37 [31] = test: Induction of apoptosis in human Bcap37 cells assessed as chromatin condensation at 10 uM after 12 hrs by Hoechst 33258 staining-based fluorescence microscopic analysis; format: functional, cell-based
PC-3 [32] = test: Induction of apoptosis in human PC3 cells assessed as smaller nuclei at 10 uM after 12 hrs by Hoechst 33258 staining-based fluorescence microscopic analysis; format: functional, cell-based
MGC-803 [33] = test: Induction of apoptosis in human MGC803 cells assessed as DNA fragmentation at 10 uM after 12 hrs by EB staining-based agarose gel electrophoresis relative to control; format: functional, cell-based
PC-3 [34] = test: Induction of apoptosis in human PC3 cells assessed as chromatin condensation at 10 uM after 12 hrs by Hoechst 33258 staining-based fluorescence microscopic analysis; format: functional, cell-based
Bcap37 [35] = test: Induction of apoptosis in human Bcap37 cells assessed as smaller nuclei at 10 uM after 12 hrs by Hoechst 33258 staining-based fluorescence microscopic analysis; format: functional, cell-based
MGC-803 [36] = test: Induction of apoptosis in human MGC803 cells assessed as smaller nuclei at 10 uM after 12 hrs by Hoechst 33258 staining-based fluorescence microscopic analysis; format: functional, cell-based

In the case of `Cc1cccc2c(Oc3ccc(/C=C/C(=O)/C=C/c4ccc(Cl)cc4Cl)cc3)ncnc12`, the IC50 (MGC-803 [1]) is reported as 5.13 µM, the IC50 (PC-3 [2]) is reported as 15.2 µM and the IC50 (Bcap37 [3]) is reported as 32.8 µM.
With `Cc1nn(C)c(Cl)c1/C=C/C(=O)/C=C/c1ccc(Oc2ncnc3c(C)cccc23)cc1` the IC50 (MGC-803 [1]) was 11.6 µM, the IC50 (PC-3 [2]) was 16.4 µM and the IC50 (Bcap37 [3]) was 21.3 µM.
Molecule `CC(=O)/C=C/c1ccc(Oc2ncnc3c(C)cccc23)cc1` has an IC50 (MGC-803 [1]) of 19.9 µM, an IC50 (PC-3 [2]) of 25.8 µM and an IC50 (Bcap37 [3]) of 30.3 µM.
`CC(=O)/C=C/c1ccc(Oc2ncnc3ccccc23)cc1` showed an IC50 (MGC-803 [1]) of 18.4 µM, an IC50 (PC-3 [2]) of 21.3 µM and an IC50 (Bcap37 [3]) of 28.9 µM.
In the case of `O=C(/C=C/c1ccc(Oc2ncnc3ccccc23)cc1)/C=C/c1cc([N+](=O)[O-])ccc1Cl`, the Activity (MGC-803 [4]) is reported as 27.1%, the Activity (PC-3 [5]) is reported as “Active” and the IC50 (MGC-803 [1]) is reported as 0.86 µM. The Activity (Bcap37 [6]) was “Active”, the Activity (Bcap37 [7]) was “Active” and the Activity (Bcap37 [8]) was “Active”. For the same molecule, the Activity (MGC-803 [9]) was 6.2%, the Activity (PC-3 [10]) was “Active” and the Activity (MGC-803 [11]) was 5.3%. For the same molecule, the Activity (MGC-803 [12]) was “Active”, the Activity (MGC-803 [13]) was 2.4% and the Activity (MGC-803 [14]) was 6.4%. It also gave an IC50 (PC-3 [2]) of 1.34 µM, an Activity (MGC-803 [15]) of 10.5% and an Activity (MGC-803 [16]) of 8.9%. For the same molecule, the IC50 (Bcap37 [3]) was 3.9 µM, the Activity (Bcap37 [17]) was “Active” and the Activity (MGC-803 [18]) was “Active”. The Activity (MGC-803 [19]) was “Active”, the Activity (MGC-803 [20]) was “Active” and the “Ratio IC50” value [21] was greater than 8. For the same molecule, the Activity (MGC-803 [22]) was “tde”, the Activity (MGC-803 [23]) was 2.8% and the Activity (MGC-803 [24]) was 4.1%. For the same molecule, the Activity (PC-3 [25]) was “Active”, the “Ratio IC50” value [26] was 5.72 and the “Ratio IC50” value [27] was greater than 8. The Activity (MGC-803 [28]) was “Active” and the Activity (PC-3 [29]) was “Active”.
For `O=C(/C=C/c1ccc(Cl)cc1)/C=C/c1ccc(Oc2ncnc3ccccc23)cc1`, the IC50 (MGC-803 [1]) was 4.84 µM, the IC50 (PC-3 [2]) was 7.35 µM and the IC50 (Bcap37 [3]) was 11.3 µM.
For `O=C(/C=C/c1ccc(F)cc1)/C=C/c1ccc(Oc2ncnc3ccccc23)cc1`, the IC50 (MGC-803 [1]) was 3.84 µM, the IC50 (PC-3 [2]) was 5.62 µM and the IC50 (Bcap37 [3]) was 8.53 µM.
With `CC[C@@]1(O)C(=O)OCc2c1cc1n(c2=O)Cc2cc3cc(O)ccc3nc2-1` [HYDROXYCAMPTOTHECIN] the Activity (MGC-803 [4]) was 24.5%, the Activity (MGC-803 [30]) was “Active” and the Activity (MGC-803 [9]) was 5.8%. The Activity (MGC-803 [11]) was 4.7%, the Activity (MGC-803 [13]) was 1.2% and the Activity (MGC-803 [14]) was 3%. For the same molecule, the Activity (MGC-803 [15]) was 8.6%, the Activity (MGC-803 [16]) was 7.6% and the Activity (Bcap37 [31]) was “Active”. The Activity (PC-3 [32]) was “Active”, the Activity (MGC-803 [33]) was “Active” and the Activity (MGC-803 [23]) was 2%. For the same molecule, the Activity (MGC-803 [24]) was 1.8%, the Activity (PC-3 [34]) was “Active” and the Activity (Bcap37 [35]) was “Active”. For the same molecule, the Activity (MGC-803 [36]) was “Active”.
Molecule `Cc1nn(C)c(Cl)c1/C=C/C(=O)/C=C/c1ccc(Oc2ncnc3ccccc23)cc1` has an IC50 (MGC-803 [1]) of 9.31 µM, an IC50 (PC-3 [2]) of 11.5 µM and an IC50 (Bcap37 [3]) of 18.9 µM.
For `COc1ccccc1/C=C/C(=O)/C=C/c1ccc(Oc2ncnc3c(C)cccc23)cc1`, the IC50 (MGC-803 [1]) was 3.76 µM, the IC50 (PC-3 [2]) was 5.17 µM and the IC50 (Bcap37 [3]) was 9.26 µM.
With `COc1ccc(OC)c(/C=C/C(=O)/C=C/c2ccc(Oc3ncnc4c(C)cccc34)cc2)c1` the IC50 (MGC-803 [1]) was 2.32 µM, the IC50 (PC-3 [2]) was 4.71 µM and the IC50 (Bcap37 [3]) was 8.17 µM.
For `Cc1cccc2c(Oc3ccc(/C=C/C(=O)/C=C/c4cc([N+](=O)[O-])ccc4Cl)cc3)ncnc12`, the IC50 (MGC-803 [1]) was 1.86 µM, the IC50 (PC-3 [2]) was 2.79 µM and the IC50 (Bcap37 [3]) was 7.89 µM.
In the case of `Cc1cccc2c(Oc3ccc(/C=C/C(=O)/C=C/c4ccc(F)cc4)cc3)ncnc12`, the IC50 (MGC-803 [1]) is reported as 4.36 µM, the IC50 (PC-3 [2]) is reported as 7.36 µM and the IC50 (Bcap37 [3]) is reported as 9.25 µM.
For `O=C(/C=C/c1ccc(Oc2ncnc3ccccc23)cc1)/C=C/c1ccc(Cl)cc1Cl`, the IC50 (MGC-803 [1]) was 2.77 µM, the IC50 (PC-3 [2]) was 4.57 µM and the IC50 (Bcap37 [3]) was 10.8 µM.
With `COc1cccc2c1C(=O)c1c(O)c3c(c(O)c1C2=O)C[C@@](O)(C(=O)CO)C[C@@H]3O[C@H]1C[C@H](N)[C@H](O)[C@H](C)O1` [DOXORUBICIN] the IC50 (MGC-803 [1]) was 0.74 µM, the IC50 (PC-3 [2]) was 1.01 µM and the IC50 (Bcap37 [3]) was 1.9 µM. For the same molecule, the “Ratio IC50” value [21] was less than 2, the “Ratio IC50” value [26] was less than 2 and the “Ratio IC50” value [27] was less than 2.
Work on `Cc1cccc2c(Oc3ccc(/C=C/C(=O)/C=C/c4ccc(Cl)cc4)cc3)ncnc12` yielded an IC50 (MGC-803 [1]) of 8.1 µM, an IC50 (PC-3 [2]) of 8.79 µM and an IC50 (Bcap37 [3]) of 12.3 µM.
With `COc1ccc(OC)c(/C=C/C(=O)/C=C/c2ccc(Oc3ncnc4ccccc34)cc2)c1` the IC50 (MGC-803 [1]) was 2.01 µM, the IC50 (PC-3 [2]) was 2.96 µM and the IC50 (Bcap37 [3]) was 7.81 µM. The “Ratio IC50” value [21] was 6.57, the “Ratio IC50” value [26] was less than 2 and the “Ratio IC50” value [27] was 4.46.
`COc1ccccc1/C=C/C(=O)/C=C/c1ccc(Oc2ncnc3ccccc23)cc1` showed an IC50 (MGC-803 [1]) of 2.03 µM, an IC50 (PC-3 [2]) of 3.66 µM and an IC50 (Bcap37 [3]) of 7.82 µM. The “Ratio IC50” value [21] was 6.13, the “Ratio IC50” value [26] was less than 2 and the “Ratio IC50” value [27] was 3.4.
